Target: T1, MGFR portion of the MUC1 receptor (His-PSMGFR) and ligand(s) in T47D lysate (Homo sapiens, UniProt P15941, R1131P)
T1 construct: made in house; host or cells: chemical synthesis (synthetic peptide)
T1 sequence (P15941 with tags, fused parts or gaps R1131P): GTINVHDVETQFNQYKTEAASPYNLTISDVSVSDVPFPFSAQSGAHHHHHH
Assay: Colloid color-change ligand binding assay with or without enzyme inhibitor
Type: biochemical
Details: T47D lysate treated with inhibitor, final concentration 3 mM
Description: To test the hypothesis that the MGFR portion of the MUC1 receptor is enzymatically modified prior to binding to its ligand(s), the drug screening assay described in Example 5a was performed in the presence or absence of an enzyme inhibitor, PMSF (phenylmethylsulfonyl fluoride; Sigma chemical Co. St. Louis Mo., USA). T47D cells, which are breast tumor cells that aberrantly express MUC1, were grown to 70% confluency, treated with trypsin to detach from the flask, and pelleted by centrifugation. A lysate was prepared as follows from the pellets of two T75 flasks. Cell pellets were resuspended in 300 μL phosphate buffer (10 mM sodium phosphate, 100 mM NaCl, pH 7.4). The lysate was divided into two parts. One aliquot of lysate was used as is. To the second aliquot was added 9 μL of a 100 mM stock solution to achieve a final concentration 3 mM. The lysates were frozen and thawed four times with 15 seconds of vigorous mixing after each thawing. Lysates were then pelleted by centrifugation and the supernatant collected. Lysates were diluted by adding 6.2 ml of phosphate buffer. The drug screening assay was then performed as described in Example 5a, with the exception that no drugs were added. Rather the ability of the ligand(s) in the lysate to bind to the MGFR in a multimeric way, which would result in the solution color to change to blue, was tested. […]

O=S(=O)(F)Cc1ccccc1 [PMSF, phenylmethylsulfonyl fluoride]
Solution color change (ligand binding to His-PSMGFR colloids): did not change color and remained pink

From patent US8344113B2, “Diagnostic tumor markers, drug screening for tumorigenesis inhibition, and compositions and methods for treatment of cancer” (Minerva Biotechnologies Corporation, priority 2000, dated 2013)
